According to patent US8778929B2, “Substituted heteroaryl inhibitors of B-RAF” (Boehringer Ingelheim International GmbH, priority 2008, dated 2014):

Biological target: B-Raf (V600E)-kinase (Homo sapiens, UniProt P15056, V600E)
Assay: Kinase test B-Raf (V600E)
Format: biochemical
Conditions: compound concentration 2 μM; 100% = no inhibition, 0% = total inhibition; read-out: % CTL (residual activity of the enzyme relative to DMSO control)
Description: In a dilution series 10 μL of test substance solution are placed in a multiwell plate. The dilution series is selected so that generally a range of concentrations of 2 μM to 0.119 nM or 0.017 nM is covered. If necessary the initial concentration of 2 μM is changed to 50 μM, 10 μM or 0.4 μM or 0.2857 μM and further dilution is carried out accordingly. The final concentration of DMSO is 5%. 10 μL of the B-Raf (V600E)-kinase solution are pipetted in (containing 0.5 ng B-Raf (V600E)-kinase in 20 mM Tris-HCl pH 7.5, 0.1 mM EDTA, 0.1 mM EGTA, 0.286 mM sodium orthovanadate, 10% glycerol, 1 mg/mL bovine serum albumin, 1 mM dithiothreitol) and the mixture is incubated for 1 h at RT under with shaking The kinase reaction is started by the addition of 20 μL ATP solution [final concentration: 250 μM ATP, 30 mM Tris-HCl pH 7.5, 0.02% Brij, 0.2 mM sodium orthovanadate, 10 mM magnesium acetate, 0.1 mM EGTA, phosphatase cocktail (Sigma, # P2850, dilution recommended by the manufacturer), 0.1 mM EGTA] and 10 μL MEK1 solution [containing 50 ng biotinylated MEK1 (prepared from purified MEK1 according to standard procedure, e.g. with EZ-Link Sulpho-NHS-LC-Biotin reagent, Pierce, # 21335) and carried out for 60 min at RT with constant shaking. The reaction is stopped by the addition of 12 μL of a 100 mM EDTA solution and incubation is continued for a further 5 min. 55 μL of the reaction solution are transferred into a streptavidin-coated plate (e.g. Streptawell HighBond, Roche, #11989685001) and shaken gently for 1 h at RT, in order to bind biotinylated MEK1 to the plate. After elimination of the liquid the plate is washed five times with 200 μL of 1×PBS and 100 μL solution of primary antibody plus europium-labelled secondary antibody [Anti Phospho-MEK (Ser217/221), Cell Signaling, # 9121 and Eu-N1 labeled goat-anti-rabbit antibody, Perkin Elmer, #AD0105], the primary antibody is diluted 1:2000 and the secondary antibody is diluted to 0.4-0.5 μg/mL in Delfia Assay Buffer (Perkin Elmer, #1244-111). After 1 h shaking at RT the solution is poured away and washed five times with 200 μL Delfia Wash Buffer (Perkin Elmer, #4010-0010/#1244-114). After the addition of 200 μL Enhancement Solution (Perkin Elmer, #4001-0010/#1244-105) the mixture is shaken for 10 min at RT and then measured in a Wallac Victor using the program “Delfia Time Resolved Fluorescence (Europium)”. IC50 values are obtained from these dosage-activity curves using a software program (GraphPadPrizm).
A value of 100% indicates no inhibition while a value of 0% indicates total inhibition. The % CTL values denote the residual activity of the enzyme after the addition of the inhibitory compound in the solvent DMSO in relation to the enzyme activity in the solvent DMSO without the addition of a compound (control). The values were determined using the B-Raf(V600E)-kinase test described above.

Sequence of B-Raf (V600E)-kinase (P15056 whole entry V600E): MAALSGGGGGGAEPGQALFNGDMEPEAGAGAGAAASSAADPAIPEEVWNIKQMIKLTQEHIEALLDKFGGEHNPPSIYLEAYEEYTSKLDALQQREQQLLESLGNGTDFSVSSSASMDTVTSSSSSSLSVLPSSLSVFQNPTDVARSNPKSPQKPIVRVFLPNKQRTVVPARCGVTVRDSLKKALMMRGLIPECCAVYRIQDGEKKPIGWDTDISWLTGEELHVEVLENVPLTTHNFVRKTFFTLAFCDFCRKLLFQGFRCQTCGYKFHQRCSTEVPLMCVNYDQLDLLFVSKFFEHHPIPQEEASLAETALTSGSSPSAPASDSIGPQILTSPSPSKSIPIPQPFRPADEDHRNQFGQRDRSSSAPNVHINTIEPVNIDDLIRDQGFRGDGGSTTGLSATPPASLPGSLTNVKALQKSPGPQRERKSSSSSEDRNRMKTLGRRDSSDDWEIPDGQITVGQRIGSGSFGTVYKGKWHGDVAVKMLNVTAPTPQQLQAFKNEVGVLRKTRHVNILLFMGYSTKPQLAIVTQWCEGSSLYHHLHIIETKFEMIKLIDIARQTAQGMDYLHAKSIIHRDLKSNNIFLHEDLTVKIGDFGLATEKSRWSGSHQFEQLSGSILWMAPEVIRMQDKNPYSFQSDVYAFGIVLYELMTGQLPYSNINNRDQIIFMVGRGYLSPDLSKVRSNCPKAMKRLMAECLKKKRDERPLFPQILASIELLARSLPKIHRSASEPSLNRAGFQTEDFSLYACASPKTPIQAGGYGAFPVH

| remaining activity at 2 µM | SMILES |
| --- | --- |
| 7.6% | Cc1ncc(C(=O)Nc2cc(C(C)(C)C)on2)cc1-n1cc(-c2cnn(C)c2C)nn1 [Example I-1] |
| 8% | Cc1ncc(C(=O)Nc2cc(C(F)(F)F)ccn2)cc1-n1cc(-c2cnn(C)c2C)nn1 [Example I-2] |
| 8.7% | Cc1ncc(C(=O)Nc2cc(N3CCN(C)CC3)cc(C(F)(F)F)c2)cc1-n1cc(-c2cnn(C)c2C)nn1 [Example I-3] |
| 1.7% | Cc1ncc(C(=O)Nc2cc(C(C)(C)C)nn2C)cc1-n1cc(-c2cnn(C)c2C)nn1 [Example I-4] |
| 2.1% | Cc1ncc(C(=O)Nc2cc(N3CCN(C)CC3)c(C)c(C(F)(F)F)c2)cc1-n1cc(-c2cnn(C)c2C)nn1 [Example I-6] |
| 2% | COc1ccc(NC(=O)c2cnc(C)c(-n3cc(-c4cnn(C)c4C)nn3)c2)cc1C(F)(F)F [Example I-7] |
| 1.6% | Cc1ccc(C(F)(F)F)cc1NC(=O)c1cnc(C)c(-n2cc(-c3cnn(C)c3C)nn2)c1 [Example I-8] |
| 1.4% | COc1c(NC(=O)c2cnc(C)c(-n3cc(-c4cnn(C)c4C)nn3)c2)cc(C(C)(C)C)cc1NS(C)(=O)=O [Example I-9] |
| 1.1% | Cc1ncc(C(=O)Nc2cc(N3CCN(C)CC3)c(F)c(C(F)(F)F)c2)cc1-n1cc(-c2cnn(C)c2C)nn1 [Example I-10] |
| 1.8% | Cc1ncc(C(=O)Nc2cc(CN3CCCC3)cc(C(F)(F)F)c2)cc1-n1cc(-c2cnn(C)c2C)nn1 [Example I-12] |
| 2.3% | COc1c(CNC(C)C)cc(C(F)(F)F)cc1NC(=O)c1cnc(C)c(-n2cc(-c3cnn(C)c3C)nn2)c1 [Example I-13] |
| 1.4% | CC(=O)Nc1ncc(-c2cn(-c3cc(C(=O)Nc4cc(C(F)(F)F)ccn4)cnc3C)nn2)s1 [Example I-14] |
| 1.4% | CC(=O)Nc1ncc(-c2cn(-c3cc(C(=O)Nc4cc(CN5CCCC5)cc(C(F)(F)F)c4)cnc3C)nn2)s1 [Example I-15] |
| 2.4% | Cc1ncc(C(=O)Nc2cc(N3CCN(C)CC3)cc(C(F)(F)F)c2)cc1-n1cc(-c2cncnc2)nn1 [Example I-18] |
| 1.9% | CCN1CCN(c2cc(NC(=O)c3cnc(C)c(-n4cc(-c5cncnc5)nn4)c3)cc(C(F)(F)F)c2C)CC1 [Example I-20] |
| 2.2% | Cc1ncc(C(=O)Nc2cc(C(C)(C)C)on2)cc1-n1cc(-c2cncnc2)nn1 [Example I-21] |
| 5.9% | Cc1ncc(C(=O)Nc2cc(C(F)(F)F)ccn2)cc1-n1cc(-c2cncnc2)nn1 [Example I-23] |
| 1% | COc1cncc(-c2cn(-c3cc(C(=O)Nc4cc(N5CCN(C)CC5)cc(C(F)(F)F)c4)cnc3C)nn2)c1 [Example I-24] |
| 2.2% | COc1cncc(-c2cn(-c3cc(C(=O)Nc4cc(N5CCN(C)CC5)c(F)c(C(F)(F)F)c4)cnc3C)nn2)c1 [Example I-25] |
| 1.4% | CCN1CCN(c2cc(NC(=O)c3cnc(C)c(-n4cc(-c5cncc(OC)c5)nn4)c3)cc(C(F)(F)F)c2C)CC1 [Example I-26] |
| 3.3% | COc1cncc(-c2cn(-c3cc(C(=O)Nc4cc(C(C)(C)C)on4)cnc3C)nn2)c1 [Example I-27] |
| 2.5% | COc1cncc(-c2cn(-c3cc(C(=O)Nc4cc(C(F)(F)F)ccn4)cnc3C)nn2)c1 [Example I-29] |
| 6.9% | Cc1cn2c(-c3cn(-c4cc(C(=O)Nc5cc(C(C)(C)C)nn5C)cnc4C)nn3)cnc2cn1 [Example I-30] |
| 1.5% | Cc1cn2c(-c3cn(-c4cc(C(=O)Nc5cc(C(F)(F)F)ccn5)cnc4C)nn3)cnc2cn1 [Example I-32] |
| 1.4% | COc1ccc(NC(=O)c2cnc(C)c(-n3cc(-c4cnc5cnc(C)cn45)nn3)c2)cc1C(F)(F)F [Example I-33] |

Same assay, conditions: measurement at 0.29 μM (*); 100% = no inhibition, 0% = total inhibition; read-out: % CTL (residual activity of the enzyme relative to DMSO control)

| remaining activity at 0.29 µM | SMILES |
| --- | --- |
| 2% | CC(=O)Nc1ncc(-c2cn(-c3cc(C(=O)Nc4cc(N5CCN(C)CC5)cc(C(F)(F)F)c4)cnc3C)nn2)s1 [Example I-16] |
